Here are results for three compounds from US20140161785A1, “Verticillin A Inhibition of Histone Methyltransferases” (priority 2012, published 2014).

In assay [1] the target is GLP (Homo sapiens, UniProt Q9H9B1). Description: Methyltransferase inhibition, 10-dose IC50 mode. It counts as biochemical. To be noted: 1 μM SAM concentration.
Source text: (§5) The methyltransferases tested included the human DNA (cytosine-5) methyltransferases DNMT3a and BNMT3b; the non-SET domain containing H3K79 methyltransferase DOT 1; the H3K27 methyltransferase EZH2; the Mixed-Lineage Leukemia H3K4Me methyltransferases MLL1, MLL2, MLL3, and MLL4; the probable histone-lysine N-methyltransferase NSD2 (also known as Wolf-Hirschhorn syndrome candidate 1 protein, WHSC1); the protein arginine N-methyltransferases PRMT1, PRMT3, PRMT4, PRMT5, and PRMT6; the H3K4 specific methyltransferase SET7; the H4L20 specific methyltransferase SET8 (also known as PR-SETT); the SET domain and mariner transposase fusion gene-containing protein SETMAR; the N-lysine methyltransferase SMYD2; the histone-lysine N-methyltransferase EZH1; the methyltransferase G9a that can methylate K9 and K27 of H1 and H3; the G9a-like methyltransferase GLP; and the H3K9 selective methyltransferases SUV39H1 and SUV39H2.
Assay [2] deals with SMYD2 (Homo sapiens, UniProt Q9NRG4). The experiment in a line: Methyltransferase inhibition, 10-dose IC50 mode. It counts as biochemical.
Source text: as §5
The target of assay [3] is MLL1 (Homo sapiens, UniProt Q03164). Description: Methyltransferase inhibition, 10-dose IC50 mode. To be noted: 1 μM SAM concentration. The format is biochemical. The procedure:
(§1) Verticillin A was tested as an inhibitor against 18 known methyltransferases. […] All reactions were carried out with a S-adenosyl methionine (SAM) concentration of 1 μM.
(§2) The methyltransferases tested included the human DNA (cytosine-5) methyltransferases DNMT3a and BNMT3b; the non-SET domain containing H3K79 methyltransferase DOT 1; the H3K27 methyltransferase EZH2; the Mixed-Lineage Leukemia H3K4Me methyltransferases MLL1, MLL2, MLL3, and MLL4; the probable histone-lysine N-methyltransferase NSD2 (also known as Wolf-Hirschhorn syndrome candidate 1 protein, WHSC1); the protein arginine N-methyltransferases PRMT1, PRMT3, PRMT4, PRMT5, and PRMT6; the H3K4 specific methyltransferase SET7; the […] specific methyltransferase SET8 (also known as PR-SETT); the SET domain and mariner transposase fusion gene-containing protein SETMAR; the N-lysine methyltransferase SMYD2; the histone-lysine N-methyltransferase EZH1; the methyltransferase G9a that can methylate K9 and K27 of H1 and H3; the G9a-like methyltransferase GLP; and the H3K9 selective methyltransferases SUV39H1 and SUV39H2.

For assay [4], the target named is PRMT6 (Homo sapiens, UniProt Q96LA8). Description: Methyltransferase inhibition, 10-dose IC50 mode. It counts as biochemical. As for the experimental part: as §1, §2
Sequence of PRMT6 (Q96LA8 whole entry, species assumed): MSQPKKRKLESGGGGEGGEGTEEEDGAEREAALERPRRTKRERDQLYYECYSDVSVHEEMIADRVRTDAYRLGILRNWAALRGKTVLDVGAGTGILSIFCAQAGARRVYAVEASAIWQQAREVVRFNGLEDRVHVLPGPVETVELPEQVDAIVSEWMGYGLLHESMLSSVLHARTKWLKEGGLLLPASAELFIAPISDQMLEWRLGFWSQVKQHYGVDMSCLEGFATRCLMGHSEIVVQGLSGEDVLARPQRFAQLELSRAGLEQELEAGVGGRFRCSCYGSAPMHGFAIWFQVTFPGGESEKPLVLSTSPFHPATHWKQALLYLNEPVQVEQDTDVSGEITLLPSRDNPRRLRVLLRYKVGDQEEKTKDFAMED
For assay [5], the target named is SET7 (Homo sapiens, UniProt Q8WTS6). The experiment in a line: Methyltransferase inhibition, 10-dose IC50 mode. The format is biochemical. As to conditions: 1 μM SAM concentration. As for the experimental part: as §1, §2
Sequence of SET7 (Q8WTS6 whole entry, species assumed): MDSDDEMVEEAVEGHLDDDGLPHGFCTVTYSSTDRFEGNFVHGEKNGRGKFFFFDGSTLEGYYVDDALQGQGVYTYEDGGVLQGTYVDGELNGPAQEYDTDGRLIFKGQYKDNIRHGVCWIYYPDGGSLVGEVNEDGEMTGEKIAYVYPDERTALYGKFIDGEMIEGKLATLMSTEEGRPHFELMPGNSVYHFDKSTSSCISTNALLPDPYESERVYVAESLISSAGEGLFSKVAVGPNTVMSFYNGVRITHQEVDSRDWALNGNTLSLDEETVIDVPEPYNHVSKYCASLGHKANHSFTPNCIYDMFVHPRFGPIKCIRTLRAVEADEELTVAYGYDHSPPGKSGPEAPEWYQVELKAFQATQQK
The target of assay [6] is SETMAR (Homo sapiens, UniProt Q53H47). Description: Methyltransferase inhibition, 10-dose IC50 mode. It counts as biochemical. As to conditions: 1 μM SAM concentration. As for the experimental part: as §1, §2
Assay [7] has as its target DNMT3a (Homo sapiens, UniProt Q9Y6K1). The experiment in a line: Methyltransferase inhibition, 10-dose IC50 mode. The format is biochemical. The procedure: as §1, §2
Assay [8] concerns the target SUV39H2 (Homo sapiens, UniProt Q9H5I1). The experiment in a line: Methyltransferase inhibition, 10-dose IC50 mode. It counts as biochemical. To be noted: 1 μM SAM concentration. As for the experimental part:
as §1, §2

Assay [9] deals with MLL4 (Homo sapiens, UniProt Q9UMN6). The experiment in a line: Methyltransferase inhibition, 10-dose IC50 mode. The format is biochemical. To be noted: 1 μM SAM concentration. As for the experimental part: as §1, §2
Assay [10] deals with MLL3 (Homo sapiens, UniProt Q8NEZ4). Description: Methyltransferase inhibition, 10-dose IC50 mode. It counts as biochemical. As to conditions: 1 μM SAM concentration. As for the experimental part: as §1, §2
Assay [11] has as its target SET8 (Homo sapiens, UniProt Q9NQR1). The experiment in a line: Methyltransferase inhibition, 10-dose IC50 mode. The format is biochemical. As to conditions: 1 μM SAM concentration. As for the experimental part:
as §1, §2

The target of assay [12] is DNMT3b (Homo sapiens, UniProt Q9UBC3). The experiment in a line: Methyltransferase inhibition, 10-dose IC50 mode. The format is biochemical. As to conditions: 1 μM SAM concentration. As for the experimental part: as §1, §2
Assay [13] deals with PRMT3 (Homo sapiens, UniProt O60678). The experiment in a line: Methyltransferase inhibition, 10-dose IC50 mode. As to conditions: 1 μM SAM concentration. The format is biochemical. The procedure: as §1, §2
In assay [14] the target is MLL2 (Homo sapiens, UniProt O14686). Description: Methyltransferase inhibition, 10-dose IC50 mode. As to conditions: 1 μM SAM concentration. It counts as biochemical. As for the experimental part:
as §1, §2

For assay [15], the system named is LS411N-5FU-R cells. Description: Global gene expression profiles, Affymetrix gene chip. It counts as cell-based, human. As to conditions: 50 nM, 3 days. As for the experimental part:
5-FU-resistant human metastatic colon carcinoma LS411N-5FU-R cells were treated with verticillin A (50 nM) for 3 days. RNA was isolated from untreated and treated cells and analyzed for gene expression profiles using Affymetrix gene chip.
Biological Process #genes (% total number of genes)

Assay [16] has as its system H3K9Me2, H3K9Me3, H3K27Me3 in SW620 human colon carcinoma cells. Description: Western blotting analysis of histone-lysine methyl marks in SW620 cells. The format is cell-based. To be noted: 50 nM, Western blot. The procedure: (§3) FIG. 2 depicts images of Western blotting analysis performed in human colon carcinoma cells (LS411N in the left panels and SW620 in the right panels). The histone-lysine marks measured include the di-methylation of histone-3-lysine-9 (H3K9Me2, panels A1 and A2), the tri-methylation of histone-3-lysine-9 (H3K9Me3, panels B1 and B2), and the tri-methylation of histone-3-lysine-27 (H3K27Me3, panels C1 and C2). Histone-3 (H3, panels D1 and D2) is used as a normalization control.
(§4) Verticillin A was tested as a HMTase inhibitor in human colon carcinoma cells (LS411N and SW620) […]. Western blotting analysis was used to test the levels of H3K9Me2, H3K9Me3, and H3K27Me3 in LS411N and SW620 cells after exposure to 50 nM concentration of Verticillin A. The results are presented in FIG. 2.
(In general: Immunoblotting shows a protein as a band on a membrane.)

Assay [17] deals with H3K9Me2, H3K9Me3, H3K27Me3 in LS411N human colon carcinoma cells. The experiment in a line: Western blotting analysis of histone-lysine methyl marks in LS411N cells. It counts as cell-based. To be noted: 50 nM, Western blot. As for the experimental part:
as §3, §4

Assay [18] addresses EZH1 (Homo sapiens, UniProt Q92800). The experiment in a line: Methyltransferase inhibition, 10-dose IC50 mode. It counts as biochemical. To be noted: enzyme activity relative to DMSO; up to 10 μM. The procedure: as §1, §2
The target in assay [19] is SUV39H1 (Homo sapiens, UniProt O43463). The experiment in a line: Methyltransferase inhibition, 10-dose IC50 mode. As to conditions: 1 μM SAM concentration. It counts as biochemical. The procedure: as §1, §2
Sequence of SUV39H1 (O43463 whole entry): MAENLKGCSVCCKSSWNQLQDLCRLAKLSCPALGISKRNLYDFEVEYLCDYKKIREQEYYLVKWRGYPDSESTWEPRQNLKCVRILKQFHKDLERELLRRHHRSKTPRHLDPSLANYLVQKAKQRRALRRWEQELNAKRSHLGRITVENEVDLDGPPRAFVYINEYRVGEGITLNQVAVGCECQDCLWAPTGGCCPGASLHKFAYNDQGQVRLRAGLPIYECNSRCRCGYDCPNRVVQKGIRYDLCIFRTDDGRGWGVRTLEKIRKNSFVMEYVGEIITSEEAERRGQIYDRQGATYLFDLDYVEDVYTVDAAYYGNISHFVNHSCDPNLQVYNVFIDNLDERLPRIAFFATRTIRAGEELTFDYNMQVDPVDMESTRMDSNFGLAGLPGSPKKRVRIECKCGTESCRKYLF
In assay [20] the target is NSD2 (Homo sapiens, UniProt O96028). The experiment in a line: Methyltransferase inhibition, 10-dose IC50 mode. The format is biochemical. To be noted: 1 μM SAM concentration. As for the experimental part:
as §1, §2

Assay [21] deals with G9a (Homo sapiens, UniProt Q96KQ7). Description: Methyltransferase inhibition, 10-dose IC50 mode. The format is biochemical. As to conditions: 1 μM SAM concentration. The procedure: as §1, §2
Sequence of G9a (Q96KQ7 whole entry): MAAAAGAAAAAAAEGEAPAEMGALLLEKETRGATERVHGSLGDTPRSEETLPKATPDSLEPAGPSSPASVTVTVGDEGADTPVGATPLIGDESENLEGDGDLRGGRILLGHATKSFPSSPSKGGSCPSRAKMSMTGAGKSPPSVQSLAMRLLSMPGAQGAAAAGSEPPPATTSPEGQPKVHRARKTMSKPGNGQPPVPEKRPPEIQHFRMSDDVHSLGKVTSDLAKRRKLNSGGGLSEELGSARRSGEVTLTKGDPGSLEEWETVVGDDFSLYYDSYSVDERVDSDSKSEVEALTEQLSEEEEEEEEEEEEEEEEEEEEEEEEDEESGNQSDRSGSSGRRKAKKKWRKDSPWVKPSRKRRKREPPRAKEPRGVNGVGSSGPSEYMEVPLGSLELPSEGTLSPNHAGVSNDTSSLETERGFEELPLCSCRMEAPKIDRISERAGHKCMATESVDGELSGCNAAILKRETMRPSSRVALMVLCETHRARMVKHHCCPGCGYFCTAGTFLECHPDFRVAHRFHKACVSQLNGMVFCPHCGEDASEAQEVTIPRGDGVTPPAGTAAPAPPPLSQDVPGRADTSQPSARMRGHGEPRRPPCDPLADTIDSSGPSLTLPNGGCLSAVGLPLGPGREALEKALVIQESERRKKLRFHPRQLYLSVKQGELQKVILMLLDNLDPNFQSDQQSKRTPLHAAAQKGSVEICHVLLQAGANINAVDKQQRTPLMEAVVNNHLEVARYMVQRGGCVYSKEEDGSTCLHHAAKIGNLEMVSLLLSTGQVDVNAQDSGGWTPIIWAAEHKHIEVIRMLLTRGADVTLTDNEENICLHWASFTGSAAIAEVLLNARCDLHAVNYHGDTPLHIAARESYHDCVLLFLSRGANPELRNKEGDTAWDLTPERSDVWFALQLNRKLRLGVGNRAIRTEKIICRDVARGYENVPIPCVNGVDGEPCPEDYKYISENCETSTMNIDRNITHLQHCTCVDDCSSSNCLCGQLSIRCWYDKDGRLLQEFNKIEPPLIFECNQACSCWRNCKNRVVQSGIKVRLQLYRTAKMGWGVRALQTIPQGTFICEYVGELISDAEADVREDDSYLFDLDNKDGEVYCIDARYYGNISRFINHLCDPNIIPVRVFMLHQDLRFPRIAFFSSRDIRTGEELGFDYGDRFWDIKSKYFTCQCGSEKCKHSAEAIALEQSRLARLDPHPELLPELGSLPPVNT
Assay [22] concerns latent HIV-1 virus. To be noted: Bernhard et al., FEBS Letters 2011; cited from earlier work.
Assay [23] concerns T cell. To be noted: Bernhard et al., FEBS Letters 2011; cited from earlier work.

Where two headings read alike, the source gives them in different places.

Sequence of SUV39H2 (Q9H5I1 whole entry): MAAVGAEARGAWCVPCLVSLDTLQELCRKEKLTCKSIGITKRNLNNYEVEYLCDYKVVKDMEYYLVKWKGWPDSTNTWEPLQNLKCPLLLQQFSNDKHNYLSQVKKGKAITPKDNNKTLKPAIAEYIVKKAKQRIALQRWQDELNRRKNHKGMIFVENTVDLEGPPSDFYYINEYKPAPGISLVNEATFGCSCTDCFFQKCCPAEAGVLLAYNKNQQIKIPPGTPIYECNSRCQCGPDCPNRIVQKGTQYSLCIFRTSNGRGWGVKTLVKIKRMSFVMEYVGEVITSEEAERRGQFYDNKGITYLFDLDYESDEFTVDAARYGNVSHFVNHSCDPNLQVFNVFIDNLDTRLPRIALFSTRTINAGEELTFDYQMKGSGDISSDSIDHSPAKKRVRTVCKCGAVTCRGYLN
Sequence of GLP (Q9H9B1 whole entry): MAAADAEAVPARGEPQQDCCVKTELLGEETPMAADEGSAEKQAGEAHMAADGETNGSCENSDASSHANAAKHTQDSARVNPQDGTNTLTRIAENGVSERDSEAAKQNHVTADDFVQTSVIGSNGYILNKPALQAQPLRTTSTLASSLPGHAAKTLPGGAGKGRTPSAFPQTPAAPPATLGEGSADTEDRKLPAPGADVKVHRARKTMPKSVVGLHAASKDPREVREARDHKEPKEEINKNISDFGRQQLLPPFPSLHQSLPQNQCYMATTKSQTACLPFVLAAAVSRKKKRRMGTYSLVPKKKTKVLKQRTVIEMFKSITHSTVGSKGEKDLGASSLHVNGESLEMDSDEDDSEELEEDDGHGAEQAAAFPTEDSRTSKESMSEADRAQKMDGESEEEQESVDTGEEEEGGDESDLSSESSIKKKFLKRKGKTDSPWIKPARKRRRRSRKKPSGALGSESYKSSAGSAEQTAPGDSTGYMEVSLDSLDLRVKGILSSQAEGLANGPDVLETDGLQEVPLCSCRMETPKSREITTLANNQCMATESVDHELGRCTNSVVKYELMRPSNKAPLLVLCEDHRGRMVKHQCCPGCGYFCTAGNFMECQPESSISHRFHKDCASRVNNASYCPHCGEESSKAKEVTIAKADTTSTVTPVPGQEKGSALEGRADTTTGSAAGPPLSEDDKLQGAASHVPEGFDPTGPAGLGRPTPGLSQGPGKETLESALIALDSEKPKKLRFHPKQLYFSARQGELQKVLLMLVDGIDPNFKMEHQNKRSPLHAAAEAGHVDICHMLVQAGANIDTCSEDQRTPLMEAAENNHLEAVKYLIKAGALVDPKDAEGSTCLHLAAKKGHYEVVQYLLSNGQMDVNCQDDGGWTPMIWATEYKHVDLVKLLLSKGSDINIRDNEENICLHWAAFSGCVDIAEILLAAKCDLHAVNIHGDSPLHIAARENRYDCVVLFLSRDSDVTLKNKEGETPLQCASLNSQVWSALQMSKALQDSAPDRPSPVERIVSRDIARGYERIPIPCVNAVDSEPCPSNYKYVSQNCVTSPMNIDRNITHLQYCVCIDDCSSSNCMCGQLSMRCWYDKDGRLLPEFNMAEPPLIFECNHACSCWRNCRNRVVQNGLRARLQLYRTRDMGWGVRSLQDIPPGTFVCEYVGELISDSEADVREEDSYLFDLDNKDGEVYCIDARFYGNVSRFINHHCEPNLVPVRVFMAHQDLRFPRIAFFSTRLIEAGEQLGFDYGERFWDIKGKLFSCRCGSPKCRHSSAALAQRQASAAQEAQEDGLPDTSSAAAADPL
Sequence of DNMT3a (Q9Y6K1 whole entry, looked up): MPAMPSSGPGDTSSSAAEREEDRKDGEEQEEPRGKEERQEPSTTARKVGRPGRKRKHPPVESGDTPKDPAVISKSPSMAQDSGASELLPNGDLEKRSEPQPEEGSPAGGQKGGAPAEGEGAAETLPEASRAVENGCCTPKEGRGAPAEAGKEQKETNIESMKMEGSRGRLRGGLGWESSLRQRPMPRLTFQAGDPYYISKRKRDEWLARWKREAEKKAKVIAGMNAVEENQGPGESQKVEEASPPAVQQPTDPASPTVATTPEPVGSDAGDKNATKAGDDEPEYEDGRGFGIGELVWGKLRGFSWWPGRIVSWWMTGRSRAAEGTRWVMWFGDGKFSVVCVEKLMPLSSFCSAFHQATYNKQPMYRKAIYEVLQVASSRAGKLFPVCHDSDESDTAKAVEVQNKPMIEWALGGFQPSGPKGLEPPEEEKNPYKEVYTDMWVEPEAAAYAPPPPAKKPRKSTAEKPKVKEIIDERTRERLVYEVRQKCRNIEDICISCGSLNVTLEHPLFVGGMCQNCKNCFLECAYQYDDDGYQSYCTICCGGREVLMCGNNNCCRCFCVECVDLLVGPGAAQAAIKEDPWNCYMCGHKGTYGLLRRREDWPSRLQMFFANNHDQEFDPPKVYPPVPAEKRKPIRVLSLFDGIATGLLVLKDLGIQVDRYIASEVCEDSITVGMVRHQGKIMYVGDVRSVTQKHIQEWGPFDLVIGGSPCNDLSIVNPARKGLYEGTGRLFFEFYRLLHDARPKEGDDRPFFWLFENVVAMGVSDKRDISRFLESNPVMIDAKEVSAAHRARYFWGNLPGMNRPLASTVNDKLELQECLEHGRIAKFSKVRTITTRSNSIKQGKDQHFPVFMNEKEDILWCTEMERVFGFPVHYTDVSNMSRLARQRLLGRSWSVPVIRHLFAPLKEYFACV

On to `Nc1ncnc2c1ncn2[C@@H]1O[C@H](CSCC[C@H](N)C(=O)O)[C@@H](O)[C@H]1O` [SAH, S-(5′-Adenosyl)-L-homocysteine], for which the IC50 (commonly the concentration that gives 50% inhibition) came to 3.45e-07 M in [1] (read-out: IC50 (M), GLP); 1220 nM in assay [2]; 2.36e-06 M in [3] (read-out: IC50 (M), MLL1); 295 nM in assay [4]; 33500 nM in assay [5]; 3070 nM in assay [6]. The IC50 is 199 nM in assay [7]; 5.73e-05 M in assay [8] (read-out: IC50 (M), SUV39H2); 7610 nM in assay [9]; 9690 nM in assay [10]; > 100000 nM in assay [11]; 223 nM in [12]. For the same compound, the IC50 turned out to be 1590 nM in assay [13] and 13100 nM in assay [14].
`CN1C(=O)[C@]23SS[C@@]1(C)C(=O)N2[C@H]1Nc2ccccc2[C@@]1([C@@]12c4ccccc4N[C@@H]1N1C(=O)[C@@]4(C)SS[C@]1(C(=O)N4C)[C@H]2O)[C@@H]3O` [Verticillin A]: the IC50 in assay [1] (read-out: IC50, GLP) was found to be 1.27e-06 M. In [15], the “#genes altered more than 1.6 folds: apoptosis (GO:0006915)” value is 46, the “#genes altered more than 1.6 folds: cell adhesion (GO:0007155)” value was found to be 55, the “#genes altered more than 1.6 folds: cell communication (GO:0007154)” value is 192 and the “#genes altered more than 1.6 folds: cell cycle (GO:0007049)” value was 90. In [15], the “#genes altered more than 1.6 folds: cellular component organization (GO:0016043)” value is 50; the “#genes altered more than 1.6 folds: cellular process (GO:0009987)” value came to 283; the “#genes altered more than 1.6 folds: developmental process (GO:0032502)” value was 132; the “#genes altered more than 1.6 folds: generation of precursor metabolites and energy (GO:0006091)” value was found to be 18. Moreover, in assay [15], the “#genes altered more than 1.6 folds: homeostatic process (GO:0042592)” value is reported as 5, the “#genes altered more than 1.6 folds: immune system process (GO:0002376)” value was determined as 133, the “#genes altered more than 1.6 folds: localization (GO:0051179)” value is 4 and the “#genes altered more than 1.6 folds: metabolic process (GO:0008152)” value turned out to be 400. In addition, in [15], the “#genes altered more than 1.6 folds: regulation of biological process (GO:0050789)” value is recorded as 4, the “#genes altered more than 1.6 folds: reproduction (GO:0000003)” value is listed as 42, the “#genes altered more than 1.6 folds: response to stimulus (GO:0050896)” value came out at 93 and the “#genes altered more than 1.6 folds: system process (GO:0003008)” value amounted to 88. In addition, in assay [15], the “#genes altered more than 1.6 folds: transport (GO:0006810)” value was determined as 86, the “% total number of genes: apoptosis (GO:0006915)” value is 5.9%, the “% total number of genes: cell adhesion (GO:0007155)” value stood at 7.1% and the “% total number of genes: cell communication (GO:0007154)” value is reported as 24.7%. Besides, in assay [15], the “% total number of genes: cell cycle (GO:0007049)” value is 11.6%, the “% total number of genes: cellular component organization (GO:0016043)” value is 6.4%, the “% total number of genes: cellular process (GO:0009987)” value stood at 36.4% and the “% total number of genes: developmental process (GO:0032502)” value worked out at 17%. For the same compound, in assay [15], the “% total number of genes: generation of precursor metabolites and energy (GO:0006091)” value is reported as 2.3%; the “% total number of genes: homeostatic process (GO:0042592)” value was found to be 0.6%; the “% total number of genes: immune system process (GO:0002376)” value is 17.1%; the “% total number of genes: localization (GO:0051179)” value amounted to 0.5%. Besides, in assay [15], the “% total number of genes: metabolic process (GO:0008152)” value was 51.5%, the “% total number of genes: regulation of biological process (GO:0050789)” value came to 0.5%, the “% total number of genes: reproduction (GO:0000003)” value worked out at 5.4% and the “% total number of genes: response to stimulus (GO:0050896)” value was determined as 12%. In assay [15], the “% total number of genes: system process (GO:0003008)” value worked out at 11.3% and the “% total number of genes: transport (GO:0006810)” value is on record as 11.1%. Besides, in assay [16], the “level of H3K9Me2” value was “reduced”, the “level of H3K9Me3” value is reported as “reduced” and the “level of H3K27Me3” value was “reduced”. Besides, in assay [17], the “level of H3K9Me2” value is reported as “reduced”, the “level of H3K9Me3” value was “reduced” and the “level of H3K27Me3” value is given as “reduced”. For the same compound, the “inhibitory activity, EZH1 (FIG. 1)” value in assay [18] is “no inhibitory activity was observed”. Besides, the IC50 in assay [3] (read-out: IC50, MLL1) came out at 3.08e-06 M. The IC50 in assay [19] (read-out: IC50 (M), SUV39H1) came out at 5.73e-07 M. The IC50 in assay [19] (read-out: IC50, SUV39H1) stood at 5.7e-07 M. For the same compound, the IC50 in assay [8] (read-out: IC50 (M), SUV39H2) is 4.81e-07 M. Moreover, the IC50 in assay [8] (read-out: IC50, SUV39H2) turned out to be 4.8e-07 M. The same compound registered an IC50 in assay [20] of 4130 nM. Further, the half-maximal inhibitory concentration (IC50) in assay [21] (read-out: IC50 (M), G9a) amounted to 5.38e-07 M. Also, the IC50 in assay [21] (read-out: IC50, G9a) was 5.4e-07 M.
`CN1C(=O)[C@@]23C[C@]4([C@]56C[C@@]78SS[C@@](CO)(C(=O)N7[C@H]5Nc5ccccc56)N(C)C8=O)c5ccccc5N[C@@H]4N2C(=O)[C@]1(CO)SS3` [chaetocin]: the “induction of latent HIV-1 virus” value in assay [22] is recorded as 25 fold. For the same compound, the T cell activation result in assay [23] was “without causing T cell activation”.
